Laboratory results from ChEMBL document CHEMBL3885881, “DrugMatrix”.

Organism: Rattus norvegicus
Test: DrugMatrix - Regimen: Daily Repeat
Format: toxicity, organism-based, Sprague-Dawley
Set-up: regimen Daily Repeat, gender Male, age 6-8 weeks
Details: in vivo, po, 620 mg/kg, route oral GAVAGE, dose level High, vehicle 100 % WATER; for BASOPHIL / EOSINOPHIL / ERYTHROCYTE COUNT / HEMATOCRIT / HEMOGLOBIN / LEUKOCYTE COUNT / LYMPHOCYTE / MEAN CORPUSCULAR HEMOGLOBIN / MEAN CORPUSCULAR HEMOGLOBIN CONCENTRATION / MEAN CORPUSCULAR VOLUME / MONOCYTE / NEUTROPHIL / PLATELET COUNT: tissue Blood; for ALANINE AMINOTRANSFERASE / ALBUMIN / ALKALINE PHOSPHATASE / ASPARTATE AMINOTRANSFERASE / BLOOD UREA NITROGEN / CARBON DIOXIDE / CHLORIDE / CHOLESTEROL / CREATINE PHOSPHOKINASE / CREATININE / GLUCOSE / LACTATE DEHYDROGENASE / LIPASE / PHOSPHORUS / POTASSIUM / SODIUM / TOTAL BILIRUBIN / TOTAL PROTEIN / URIC ACID: tissue Plasma

SMILES: OCCNCCO [DIETHANOLAMINE]
- BASOPHIL (72 h, time 3 day): 0.67%
- EOSINOPHIL (72 h, time 3 day): 0.37%
- ERYTHROCYTE COUNT (72 h, time 3 day): 6.14 x10E6/uL
- HEMATOCRIT (72 h, time 3 day): 41.37%
- HEMOGLOBIN (72 h, time 3 day): 13.23 G/DL
- LEUKOCYTE COUNT (72 h, time 3 day): 8.17 x10E3/uL
- LYMPHOCYTE (72 h, time 3 day): 87.67%
- MEAN CORPUSCULAR HEMOGLOBIN (72 h, time 3 day): 21.6 pg
- MEAN CORPUSCULAR HEMOGLOBIN CONCENTRATION (72 h, time 3 day): 32.1 G/DL
- MEAN CORPUSCULAR VOLUME (72 h, time 3 day): 67.4 fL
- MONOCYTE (72 h, time 3 day): 2.03%
- NEUTROPHIL (72 h, time 3 day): 6.8%
- PLATELET COUNT (72 h, time 3 day): 1227 x10E3/uL
- ALANINE AMINOTRANSFERASE (72 h, time 3 day): 45.67 u/L
- ALBUMIN (72 h, time 3 day): 4.33 G/DL
- ALKALINE PHOSPHATASE (72 h, time 3 day): 468 u/L
- ASPARTATE AMINOTRANSFERASE (72 h, time 3 day): 125.67 u/L
- BLOOD UREA NITROGEN (72 h, time 3 day): 18 mg/dL
- CARBON DIOXIDE (72 h, time 3 day): 24.33 mmol/L
- CHLORIDE (72 h, time 3 day): 111 MEQ/L
- CHOLESTEROL (72 h, time 3 day): 75 mg/dL
- CREATINE PHOSPHOKINASE (72 h, time 3 day): 164.33 u/L
- CREATININE (72 h, time 3 day): 0.5 mg/dL
- GLUCOSE (72 h, time 3 day): 181.67 mg/dL
- LACTATE DEHYDROGENASE (72 h, time 3 day): 102.67 u/L
- LIPASE (72 h, time 3 day): 21.33 u/L
- PHOSPHORUS (72 h, time 3 day): 13.47 mg/dL
- POTASSIUM (72 h, time 3 day): 6.33 MEQ/L
- SODIUM (72 h, time 3 day): 154.33 MEQ/L
- TOTAL BILIRUBIN (72 h, time 3 day): 0.3 mg/dL
- TOTAL PROTEIN (72 h, time 3 day): 6.5 G/DL
- URIC ACID (72 h, time 3 day): 2.07 mg/dL
- BASOPHIL (120 h, time 5 day): 0.47%
- EOSINOPHIL (120 h, time 5 day): 0.37%
- ERYTHROCYTE COUNT (120 h, time 5 day): 6.72 x10E6/uL
- HEMATOCRIT (120 h, time 5 day): 42.63%
- HEMOGLOBIN (120 h, time 5 day): 13.57 G/DL
- LEUKOCYTE COUNT (120 h, time 5 day): 7.2 x10E3/uL
- LYMPHOCYTE (120 h, time 5 day): 85.43%
- MEAN CORPUSCULAR HEMOGLOBIN (120 h, time 5 day): 20.17 pg
- MEAN CORPUSCULAR HEMOGLOBIN CONCENTRATION (120 h, time 5 day): 31.77 G/DL
- MEAN CORPUSCULAR VOLUME (120 h, time 5 day): 63.43 fL
- MONOCYTE (120 h, time 5 day): 2.37%
- NEUTROPHIL (120 h, time 5 day): 9.9%
- PLATELET COUNT (120 h, time 5 day): 1342 x10E3/uL
- ALANINE AMINOTRANSFERASE (120 h, time 5 day): 54.33 u/L
- ALBUMIN (120 h, time 5 day): 4.7 G/DL
- ALKALINE PHOSPHATASE (120 h, time 5 day): 407 u/L
- ASPARTATE AMINOTRANSFERASE (120 h, time 5 day): 196.33 u/L
- BLOOD UREA NITROGEN (120 h, time 5 day): 18.33 mg/dL
- CARBON DIOXIDE (120 h, time 5 day): 26 mmol/L
- CHLORIDE (120 h, time 5 day): 109.33 MEQ/L
- CHOLESTEROL (120 h, time 5 day): 82.67 mg/dL
- CREATINE PHOSPHOKINASE (120 h, time 5 day): 320.67 u/L
- CREATININE (120 h, time 5 day): 0.33 mg/dL
- GLUCOSE (120 h, time 5 day): 164.33 mg/dL
- LACTATE DEHYDROGENASE (120 h, time 5 day): 81.33 u/L
- LIPASE (120 h, time 5 day): 24.67 u/L
- PHOSPHORUS (120 h, time 5 day): 12.87 mg/dL
- POTASSIUM (120 h, time 5 day): 5.67 MEQ/L
- SODIUM (120 h, time 5 day): 152.67 MEQ/L
- TOTAL BILIRUBIN (120 h, time 5 day): 0.4 mg/dL
- TOTAL PROTEIN (120 h, time 5 day): 7.07 G/DL
- URIC ACID (120 h, time 5 day): 2.27 mg/dL
- BASOPHIL ([…], time 14 day): 1.68%
- EOSINOPHIL ([…], time 14 day): 0.28%
- ERYTHROCYTE COUNT ([…], time 14 day): 6.33 x10E6/uL
- HEMATOCRIT ([…], time 14 day): 37.84%
- HEMOGLOBIN ([…], time 14 day): 12.58 G/DL
- LEUKOCYTE COUNT ([…], time 14 day): 17.16 x10E3/uL
- LYMPHOCYTE ([…], time 14 day): 79.3%
- MEAN CORPUSCULAR HEMOGLOBIN ([…], time 14 day): 19.88 pg
- MEAN CORPUSCULAR HEMOGLOBIN CONCENTRATION ([…], time 14 day): 33.26 G/DL
- MEAN CORPUSCULAR VOLUME ([…], time 14 day): 59.7 fL
- MONOCYTE ([…], time 14 day): 1.7%
- NEUTROPHIL ([…], time 14 day): 15.34%
- PLATELET COUNT ([…], time 14 day): 590 x10E3/uL
- ALANINE AMINOTRANSFERASE ([…], time 14 day): 40.2 u/L
- ALBUMIN ([…], time 14 day): 4.34 G/DL
- ALKALINE PHOSPHATASE ([…], time 14 day): 449 u/L
- ASPARTATE AMINOTRANSFERASE ([…], time 14 day): 305.8 u/L
- BLOOD UREA NITROGEN ([…], time 14 day): 32.2 mg/dL
- CARBON DIOXIDE ([…], time 14 day): 27.6 mmol/L
- CHLORIDE ([…], time 14 day): 106 MEQ/L
- CHOLESTEROL ([…], time 14 day): 46.6 mg/dL
- CREATINE PHOSPHOKINASE ([…], time 14 day): 123.4 u/L
- CREATININE ([…], time 14 day): 0.56 mg/dL
- GLUCOSE ([…], time 14 day): 162 mg/dL
- LACTATE DEHYDROGENASE ([…], time 14 day): 58 u/L
- LIPASE ([…], time 14 day): 19 u/L
- PHOSPHORUS ([…], time 14 day): 12.6 mg/dL
- POTASSIUM ([…], time 14 day): 5.54 MEQ/L
- SODIUM ([…], time 14 day): 151 MEQ/L
- TOTAL BILIRUBIN ([…], time 14 day): 0.34 mg/dL
- TOTAL PROTEIN ([…], time 14 day): 6.32 G/DL
- URIC ACID ([…], time 14 day): 0.68 mg/dL
